We go through two compounds from patent US4731471A, “(5,6-dichloro-3-oxo-2,3,9,9a-tetrahydrofluoren-7-yl)-alkanoic acids and alkanimidamides bearing novel functional 9a-substituents” (Merck & Co., Inc., priority 1986, dated 1988).

The test system of one assay is astroglial edema. Particulars: cited from earlier work.
Another assay concerns experimental head injury. The following applies: cited from earlier work.
The test system of assay [1] is clinical cases of head injury. Particulars: cited from earlier work.
Assay [2] relates to cerebrocartical tissue slices from cats. The assay is described as follows: in vitro cat cerebrocortical tissue slice assay (HCO3^- -stimulated swelling). Particulars: Felis catus, racemate. From the text: This assay is described in detail in articles by: Cragoe, E. J., Jr.; Gould, N. P.; Woltersdorf, O. W., Jr.; Ziegler, C.: Bourke, R. S.; Nelson, L. R.; Kimelberg, H. K.; Waldman, J. B.; Popp, A. J.; Sedransk, N. J. Med. Chem. 1982, 25, 567, and by Rourke, R. S.: Kimelberg, H. K.; Daze, M.; Church, G. Neurochem. Res. 1983, 8, 5.
Cat pial surface slices (~0.5 mm thick) were cut from the cerebral convexities using a Stadie-Riggs microtome without any moistening. Each slice was then weighed on a torsion balance and immediately placed in a Warburg flask containing 2 mL incubation medium at room temperature (22° C.).
The basic composition of the incubation medium in mmol/l was: KCl, 27; NaCl, 100; glucose, 10; KH2 PO4, 1.2: MgSO4, 1.2; CaCl2, 1.3; HEPES (N-2-hydroxyethylpiperazine-N'-2-ethanesulfonic acid (Sigma)). This solution was titrated with NaOH to pH 7.8, and saturated with oxygen by bubbling the gas through the solution.
To obtain HCO3^- dependent swelling, a solution of NaHCO3 in the above medium was added from the side-arm of the flask to slices which had been incubated in 2 mL of medium without added HCO3 at 37° C. for 20 minutes to achieve a final concentration of 5 mmol. The slices were then incubated for an additional 40 minutes. For control experiments,0.5 mL of the medium without HCO3^- was similarly added from the side-arm. Inhibitors, when used, were present with the slices throughout the 60 minute incubation period. After 60 minutes, the tissue slices were separated from the medium by careful vacuum filtration, re-weighed, and then homogenized (10% w/v suspension) in 1N perchloric acid and then centrifuged. The supernatant was then assayed for electrolytes as previously described.
The tissue content of electrolytes is always expressed as micromoles per gram of the initial wet weight. Percent swelling was calculated as (final wet weight minus initial wet weight/initial wet weight)×100 and HCO3^- dependent swelling would be the increased swelling of slices due to added HCO3^- in media containing 28-29 mmol K^+. Such HCO3^- stimulated swelling is not seen in medium with a normal K^+ concentration (4 to 5 mmol).
The (1) in vitro cat cerebrocortical tissue slice assay, (2) the in vitro primary rat astrocyte culture assay and (3) the in vivo cat head injury assay. The first assay, the in vitro cat cerebrocortical tissue slice assay has been described by Marshall, L. F.; Shapiro, H. M.; Smith, R. W. In "Seminars in Neurological Surgery: Neural Trauma"; Popp, A. J.; Bourke, R. S.; Nelson, L. R.; Kimelberg, H, K,. Eds.; Raven Press: New York, 1979; p. 347, by Bourke, R. S.; Kimelberg, H, K.; Daze, M. A. in Brain Res. 1978, 154, 196, and by Bourke, R. S.; Kimelberg, H. K,; Nelson, L. R. in Brain Res. 1976, 105, 309. This method constitutes a rapid and accurate method of determining the intrinsic chloride inhibitory properties of the compounds of the invention in the target tissue.
Using in vitro cat cerebrocortical tissue slice assay, described in Example 1, compounds of the present invention can be tested for activity. This test provides the principal in vitro evaluation and consists of a determination of concentration vs. response curve. The addition of HCO3^- to isotonic, K^+ -rich saline-glucose incubation media is known to specifically stimulate the transport of Cl^- coupled with Na^+ and an osmotic equivalent of water in incubating slices of mammalian cerebral cortex. […] After addition of drug to the incubation media, detailed drug concentration-response curves are then obtained. The data are expressed as percent HCO3^- -stimulated swelling vs. drug concentration, from which the concentration of drug providing 50% inhibition of HCO3^- -stimulated swelling (I50 in molarity) is interpolated.
Adult cats of 2-3 kg body weight are employed in tissue slice studies. Prior to sacrifice, the animals are anesthetized with ketamine hydrochloride (Ketaset), 10 mg/kg intramuscularly. […]

For `C=C(CC)C(=O)c1ccc(OCC(=O)O)c(Cl)c1Cl` [ethacrynic acid], the “activity in in vitro assay” value in the assay with astroglial edema was “exhibited activity”. Besides, the “activity in in vivo assay” value in the assay on experimental head injury was “exhibited activity”. Moreover, the “reducing mortality in clinical cases of head injury” value in assay [1] was “effective in reducing mortality in clinical cases of head injury”.
`O=C(O)COc1cc2c(c(Cl)c1Cl)C1=CC(=O)CCC1(CCO)C2` (racemic) [Example 2, {[5,6-Dichloro-9a-(2-hydroxyethyl)-3-oxo-2,3,9,9a-tetrahydro-1H-fluoren-7-yl]oxy}acetic acid]: the inhibition (as a rule, the percentage by which the read-out fell short of the control) at 0.1 µM in assay [2] (Conc. 10^-7 M) was 19%. Further, in assay [2] (Conc. 10^-8 M), 0.01 µM produced 92% inhibition. Besides, the inhibition at 0.001 µM in assay [2] (Conc. 10^-9 M) was found to be 75%. In assay [2] (Conc. 10^-10 M), this compound showed an inhibition at 0.0001 µM of 85%. The compound also yielded an inhibition at 10 pM in assay [2] (Conc. 10^-11 M) of 53%. This compound returned an inhibition at 1 pM in assay [2] (Conc. 10^-12 M) of 15%.
